From patent publication US20190054038A1, “NITRIC OXIDE GENERATING FORMULATIONS AND KITS” (THE REGENTS OF THE UNIVERSITY OF MICHIGAN, priority 2016, published 2019)

What was measured:
[1] = NO release kinetics of solutions by chemiluminescence (nitric oxide analyzer); format: physicochemical
Experimental: The NO release profile of the two solutions was measured via chemiluminescence detection at 37° C., and the results are shown in FIG. 3. As depicted, both solutions continuously generated NO for more than 7 hours, and the solution containing the higher concentration of GSNO generated higher levels of NO.
As depicted, the inclusion of ascorbate provided an enhanced NO release profile, with all of the NO release within a 2-3 hour window.
The NO release rate of some of the solution formulations was measured by chemiluminescent nitric oxide analyzer (NOA) at room temperature and at 37° C. in an amber NOA cell, while purging with 50 mL/min nitrogen through a glass pipette. The solution formulations were freshly prepared (initial data) (i.e., the dry powder nasal formulation was dissolved in 10 mL of saline solution (NaCl and NaHCO3 in water) immediately before measurements), or were prepared from stored dry power aliquots that were freshly dissolved in 10 mL of saline solution (NaCl and NaHCO3 in water) immediately before measurements. The NO release rate was tested for one or more of the following time periods: 0 (freshly prepared), 1 month, 2 months, 4 months, and 6 months.
The NOA was a Sievers NOA. Studying the release kinetics included analyzing the overall shape of the transient curve, half-life, and total NO released compared to theoretical GSNO content (%). Primarily, the shape of the graph was considered most qualitative, as different machines yield different PPB/mL values due to differing constants. If necessary, the GSNO quantification in each formulation was tested by a copper/cysteine method to release all of the NO from the GSNO very rapidly.

[2] = tested on: S. aureus biofilm on CF airway epithelial cells; experiment: Killing of S. aureus biofilm on CF airway epithelial cell cultures (bacterial density by plating lysates); format: cell-based; settings: 1.25 mM, 4 hours
Experimental: Progenitor (basal) airway epithelial cells isolated from cystic fibrosis patients were cultured at air/liquid interface to promote mucociliary differentiation resembling airway epithelium in vivo. These cultures will be referred to herein as CF airway epithleial cells.
Apical surface of the CF airway epithelial cells was washed with PBS, infected apically with 10 μl of S. aureus (1×10^5 CFU/well or at 0.01 multiplication of infection), and incubated for 24 hours. […] The basolateral medium was changed, the apical surface was washed with saline once, and then 30 μl of PBS containing various concentrations of GSNO/Asc (i.e., 0 mM, 0.3 mM, 0.625 mM, 1.25 mM, 2.5 mM, and 5 mM) was added to the apical surface and incubated for 4 hours. The apical surface was washed once with 0.2 ml of 0.15% bicarbonate in PBS. […] Cells were lysed in 1% Triton X-100 and serial dilutions of cell lysates were plated to determine the bacterial density (FIG. 17A).
Apical surface of CF airway epithelial cells was washed with PBS, infected apically with 10 μl of S. aureus (2×10^6 CFU/well), and incubated for 24 hours. The basolateral medium was changed, the apical surface was washed with saline once and treated apically with 30 μl of PBS, or saline containing 1.25 mM GSNO/Asc, or saline containing 50 μg of gentamicin, or saline containing a mixture of 1.25 mM GSNO/Asc and 50 μg of gentamicin. […]

[3] = Stability of dry powder formulations by UV/Vis (GSNO absorbance at 334 nm); format: physicochemical
Experimental: Some of the formulations also included ethylenediamintetraacetic acid (EDTA) and/or saline salts (NaCl and NaHCO3). The constituents were mixed as dry powders and were stored in 4 mL amber vials either in the freezer (−18° C.), at 4° C., at room temperature (RT, from about 20° C. to about 25° C.), or at 37° C. The stability of some of the dry powder formulations was tested via UV/Vis analysis and/or via the Sievers nitric oxide (NO) analyzer (as previously described). For the UV/Vis analysis, at each time interval (0 (freshly prepared), 1 month, 2 months, 4 months, and 6 months), three samples (3-5 mg each) from the dry powder formulations (at each temperature, resulting in 12 vials per formulation) were put into 4 mL amber vials. The respective formulations were then diluted in 4 mL PBS+0.1 mM EDTA (PB SE) solution and mixed for 30 seconds, and 1 mL of the diluted formulation was injected into 3 mL PBSE in a disposable UV/VIS cuvette. The absorbance spectrum was measured typically between 300-600 nm after measuring the PBSE spectrum as blank. GSNO was quantified by absorbance measured at 334 nm. These values were then compared to a calculated value of the percentage of initial or theoretical GSNO content of each formulation.

Question: With `O=C(O)CN(CCN(CC(=O)O)CC(=O)O)CC(=O)O` [EDTA, ethylenediaminetetraacetic acid] as the molecule, how does the “EDTA stability in stored dry powder formulation” value ([1]; NO release patterns, fresh vs stored several months) read?
Answer: stable

Question: Which “change in bacterial density” value [2] does the source give for `N[C@@H](CCC(=O)N[C@@H](CS)C(=O)NCC(=O)O)C(=O)O` [GSH, reduced L-glutathione] here?
Answer: no significant changes in bacterial density

Question: Which results are given for `N[C@@H](CCC(=O)N[C@@H](CSN=O)C(=O)NCC(=O)O)C(=O)O` [GSNO, S-nitrosoglutathione]?
Answer: time of continuous NO generation ([1]; 10 μM and 25 μM GSNO in phosphate buffered saline pH 7.4, 37° C., no additive): more than 7 hours; amount of NO release versus GSNO concentration ([1]; GSNO 1-100 μM in saline): directly related to the GSNO concentration; time of peak NO release ([1]; GSNO 1-100 μM in saline, without any additive): 5 to 6 h; % of initial GSNO remaining ([3]; dry powder stored at 37° C., after 6 months): 67%; stability of dry powder over six months (UV/VIS) ([3]; stored at −18° C., 4° C., room temperature, 37° C.): no significant decrease in the stability

Question: Which “change in bacterial density” value [2] does the source give for `O=C1O[C@H]([C@@H](O)CO)C(O)=C1O` [ascorbic acid, L-ascorbic acid, reference compound] here?
Answer: no significant changes in bacterial density

Question: And the “ascorbic acid stability in stored dry powder formulation” value ([3]; UV/Vis of GSNO mixed with ascorbic acid, fresh vs stored several months)?
Answer: relatively stable
